Assay results taken from patent US12006294B2, “Therapeutic compounds” (REGENTS OF THE UNIVERSITY OF MINNESOTA, priority 2017, dated 2024).
Read-outs that look alike come from different tables or passages of the source.

Columns and labels:
[1] = system: CAD5 cells; format: cell-based
[2] = system: Hela Cells; experiment: Cellular ER stress model (tunicamycin, WST-8 cell viability); conditions: for AntiERStress (% Cell Survival): HeLa cells, tunicamycin 48 hours, WST-8; for viability at 2.5 µM: Homo sapiens, HeLa, 48 h

Structure (SMILES)	1/Elispot [1]	AntiPrion (Number of Cells × 10^4) [1]	EliSpot (Spots/10000 Cells) [1]	Elispot (vs PC) [1]	AntiERStress (% Cell Survival) [2]	viability at 2.5 µM ([2]; read-out: % Cell Survival Cmpd(2.5 μM) + Tuni, Hela cells, compound 2.5 μM + tunicamycin, WST-8 viability 48 hours after tunicamycin treatment)	viability at 2.5 µM ([2]; read-out: Compounds ERS (vs Tn), ERS activity vs Tuni = % cell survival (compound)/% cell survival (tunicamycin), compound 2.5 μM)
N=C(N)N/N=C/c1ccc(Cl)cc1F [BC2-19-1, (E)-2-(4-chloro-2-fluorobenzylidene)hydrazinecarboximidamide acetate]	0.72	5 × 10^4	1800 Spots/10000 Cells	1.38	64.15 % Cell Survival		
Cc1ccccc1/C=N/NC(=N)N [BC2-3-1, (E)-2-(2-methylbenzylidene)hydrazinecarboximidamide acetate]	1.86	28 × 10^4	700 Spots/10000 Cells	0.54	82.07 % Cell Survival		
N=C(N)N/N=C/c1c(I)cccc1I [BC2-55-2, (E)-2-(2,6-diiodobenzylidene)hydrazinecarboximidamide]	1.00	4 × 10^4	1300 Spots/10000 Cells	1.00	70.69 % Cell Survival		
N=C(N)NCCc1c(Cl)cccc1Cl [BC1-252-2, 1-(2,6-dichlorophenethyl)guanidine]	0.72	8 × 10^4	1800 Spots/10000 Cells	1.38	49.49 % Cell Survival		
N=C(N)N/N=C/c1c(Cl)cc(O)cc1Cl [BC1-167-1, (E)-2-(2,6-dichloro-4-hydroxybenzylidene)hydrazinecarboximidamide acetate]	0.87	9 × 10^4	1500 Spots/10000 Cells	1.15	45.93 % Cell Survival		
N=C(N)N/N=C/c1ccccc1 [BC1-295-1, (E)-2-benzylidenehydrazinecarboximidamide acetate]	2.17	37 × 10^4	600 Spots/10000 Cells	0.46	60.58 % Cell Survival		
Clc1cc(Cl)cc(NC2=NCCN2)c1 [BC1-242-2, N-(3,5-dichlorophenyl)-4,5-dihydro-1H-imidazol-2-amine]	1.86	50 × 10^4	700 Spots/10000 Cells	0.54	57.56 % Cell Survival		
N=C(N)Nn1ccnc1-c1c(Cl)cccc1Cl [BC1-267-2, 1-(2-(2,6-dichlorophenyl)-1H-imidazol-1-yl)guanidine]	1.00	18 × 10^4	1300 Spots/10000 Cells	1.00	64.26 % Cell Survival	42.3%	102%
N=C(N)N/N=C/c1ccccc1Br [BC1-297-1, (E)-2-(2-bromobenzylidene)hydrazinecarboximidamide acetate]	0.93	8 × 10^4	1400 Spots/10000 Cells	1.08	90.49 % Cell Survival		
N=C(N)N/N=C/c1c(O)cccc1Cl [BC2-59-1, (E)-2-(2-chloro-6-hydroxybenzylidene)hydrazinecarboximidamide acetate]	0.93	15 × 10^4	1400 Spots/10000 Cells	1.08	104.6895 % Cell Survival		
N=C(N)Nc1c(Cl)cccc1Cl [BC1-256-2, 1-(2,6-dichlorophenyl)guanidine]	1.44	32 × 10^4	900 Spots/10000 Cells	0.69	54.77 % Cell Survival		
